Consider 3 compounds from patent US20230355597A1, “COMPOUNDS, COMPOSITIONS, AND METHODS FOR THE TREATMENT AND PREVENTION OF AVIAN PATHOGENIC E. COLI (APEC)” (OHIO STATE INNOVATION FOUNDATION, priority 2018, published 2023).

For data set [1], the system named is QS and virulence associated genes of APEC O78. Nature of the data set: qRT-PCR of QS-regulated and virulence factors genes. The class given is cell-based, avian pathogenic Escherichia coli (APEC). Conditions: 100 µM, 10 h. For orientation: Real-time PCR tracks product formation cycle by cycle.
The test system of another data set is AI-2 activity of APEC O8. Nature of the data set: AI-2 bioluminescence indicator assay (V. harveyi BB170). The conditions noted are these: APEC O8, 100 µM.
The test system of data set [2] is AI-2 activity of APEC O15. The data set is described as above. The conditions noted are these: APEC O15, 100 µM.
The subject of data set [3] is AI-2 activity of APEC O35. The description is as above. The conditions noted are these: APEC O35, 100 µM.
The test system of data set [4] is AI-2 activity of APEC O109. The data set is described as above. Conditions: APEC O109, 100 µM.
Another data set concerns AI-2 activity of APEC O2. Described as above. The conditions noted are these: APEC O2, 100 µM.
Data set [5] deals with AI-2 activity of APEC O115. The data set is described as above. Conditions: APEC O115, 100 µM.
Data set [6] has as its system Rif^r APEC O78. Nature of the data set: Wax moth (Galleria mellonella) larva infection model (AI-2 inhibitors). The conditions noted are these: 72 h post treatment.
The test system of data set [7] is APEC O78 biofilm formation. Nature of the data set: Biofilm assay (crystal violet). Conditions: 100 µM, 48 h. The class given is cell-based, avian pathogenic Escherichia coli (APEC). As to the method: Biofilm assay. […] Briefly, APEC O78 was grown in LB broth in the presence of 100 µM of each compound in a 96-well plate at 37° C. for 10 h. The culture was then diluted 1:100 in fresh LB broth. The biofilm assay was performed in 96-well plate contain 150 µL of the diluted culture and 100 µM of each compound. The plate was then incubated aerobically without shaking at 37° C. for 48 h, washed twice with PBS to remove the non-adherent cells and stained with 200 µL of 0.1% CV in water at room temperature for 10 min. The plate was washed with PBS and biofilm was quantified by measuring the absorbance at 550 nm after solubilizing the CV in 200 µL of 30% acetic acid in water for 15 min.

For data set [8], the system named is AI-2 activity of APEC O18. Nature of the data set: AI-2 bioluminescence indicator assay (V. harveyi BB170). Conditions: APEC O18, 100 µM.
For data set [9], the system named is AI-2 activity of APEC O78. The data set is described as above. The conditions noted are these: APEC O78, 100 µM.
Data set [10] has as its system Rif^r APEC O78. Nature of the data set: In vivo screening of quorum sensing inhibitors in APEC infected broiler chickens. The conditions noted are these: for reduction in chicken mortality: DMSO control mortality normalized to 100%; for Mortality rate (%): oral gavage once a day, day 4 to day 8, DMSO control 66.7%; for Reduction in APEC lesions severity, Air-sacs (%) / Reduction in APEC lesions severity, Heart (%) / Reduction in APEC lesions severity, Liver (%) / Reduction in APEC lesions severity, Lung (%): vs DMSO treated control.

The test system of a further data set is APEC O1 in HD-11 cells. Nature of the data set: Intracellular survival assay (AI-2 inhibitors). The conditions noted are these: O1, HD-11, 100 µM, 6 h.
Another data set relates to AI-2 activity of APEC O1. Nature of the data set: AI-2 bioluminescence indicator assay (V. harveyi BB170). The conditions noted are these: APEC O1, 100 µM.
A further data set has as its system APEC O2 in HD-11 cells. Nature of the data set: Intracellular survival assay (AI-2 inhibitors). Conditions: O2, HD-11, 100 µM, 6 h.
In a further data set the test system is APEC O78 in THP-1 cells. Nature of the data set: Intracellular survival assay (AI-2 inhibitors). The conditions noted are these: O78, THP-1, 100 µM, 6 h, vs DMSO.
Another data set concerns APEC O78 in HD-11 cells. Nature of the data set: Intracellular survival assay (AI-2 inhibitors). Conditions: O78, HD-11, 100 µM, 6 h. The class given is cell-based, avian pathogenic Escherichia coli (APEC). From the text: Intracellular survival assay.
A further data set concerns APEC O2 in THP-1 cells. Nature of the data set: Intracellular survival assay (AI-2 inhibitors). Conditions: O2, THP-1, 100 µM, 6 h.
Another data set relates to Caco-2 cells. Nature of the data set: LDH assay of AI-2 inhibitors. The conditions noted are these: Caco-2, 100 µM, 24 h.

For `COCCN1CCC(CN(Cc2ccncc2)Cc2ccccc2Cl)CC1` [C1, {2-chlorobenzyl)([1(2-methoxyethyly-4-piperidinyl]methyl)4-pyridinyimethyl)amine], the “expression of murD” value in data set [1] is reported as “down-regulated”. Also, the “Inhibition % of AI-2 activity” value in the data set with AI-2 activity of APEC O8 is 20%; in [2], 13%; in data set [3], 48%; in data set [4], 65%; with AI-2 activity of APEC O2 it was 94%; in [5] it was 64%. For the same compound, the “Inhibition % of AI-2 activity” value in data set [8] was 37%; in [9], 84%. Besides, the larval death entry with Rif^r APEC O78 [6] is “no larval death”. Moreover, in data set [7], the “induction of biofilm formation of APEC O78” value was “up to 100%”. The “reduction in chicken mortality” value in the data set on Rif^r APEC O78 [10] stood at 25%. Moreover, in the data set on Rif^r APEC O78 [10], the “Mortality rate (%)” value is 50%. Besides, the “Reduction in APEC lesions severity, Air-sacs (%)” value in the data set on Rif^r APEC O78 [10] worked out at 26.7%. Also, the “Reduction in APEC lesions severity, Heart (%)” value with Rif^r APEC O78 [10] amounted to 0%. Further, in the data set with Rif^r APEC O78 [10], the “Reduction in APEC lesions severity, Liver (%)” value came out at 0%. Besides, the “Reduction in APEC lesions severity, Lung (%)” value with Rif^r APEC O78 [10] was 66.7%.

Turning to `NC(=O)c1ccccc1Nc1cccc(C(F)(F)F)c1` [C3, 2-[[3-(trifuoromethyl)phenyl]amino]benzamide], the “clearance of intracellular APEC” value in the data set with APEC O1 in HD-11 cells was found to be 100%. Besides, in the data set on APEC O1 in HD-11 cells (vs DMSO), the “reduction of intracellular survival” value was 4 logs. In addition, in data set [1], the expression of fpr entry is reported as “down-regulated”. For the same compound, the “Inhibition % of AI-2 activity” value is reported as 65% with AI-2 activity of APEC O1; 39% in the data set with AI-2 activity of APEC O8; 0% in data set [2]; 37% in data set [3]; 0% in data set [4]; 54% with AI-2 activity of APEC O2. The “Inhibition % of AI-2 activity” value in data set [5] was 35%; in data set [8], 8%; in data set [9] it was 78%.

With `OCCC1CN(C2CCN(c3ccccc3)CC2)CCN1CCCc1ccccc1` (stereo not drawn) [C10], the “expression of fliP” value in [1] is reported as “down-regulated”. Besides, the “Inhibition % of AI-2 activity” value in the data set with AI-2 activity of APEC O1 was 64%; with AI-2 activity of APEC O8 it was 0%; in data set [2], 22%; in [3], 47%; in data set [4] it was 57%; with AI-2 activity of APEC O2, 89%. Besides, the “Inhibition % of AI-2 activity” value in [8] was 35%; in [9], 84%. Also, the “clearance of intracellular APEC” value in the data set with APEC O2 in HD-11 cells, with APEC O78 in HD-11 cells and with APEC O2 in THP-1 cells was 100% throughout. Moreover, the “reduction of intracellular survival” value with APEC O2 in HD-11 cells (vs DMSO) was 3.3 logs; in the data set on APEC O78 in THP-1 cells it was “up to 0.7 logs”; in the data set with APEC O78 in HD-11 cells (vs DMSO) it was 4 logs; in the data set on APEC O2 in THP-1 cells (vs DMSO), 4 logs. The “reduction in chicken mortality” value with Rif^r APEC O78 [10] was determined as 75%. Also, the “average lesion score reduction” value in the data set with Rif^r APEC O78 [10] (liver, heart, lung and airsac, vs DMSO) was 1.5-2.3. For the same compound, the “reduction of bacterial load in internal organs” value in the data set with Rif^r APEC O78 [10] (liver, lung, heart, and kidney, vs DMSO control, 'up to') is 3.4-4.3 log CFU/g. For the same compound, the “Mortality rate (%)” value in the data set with Rif^r APEC O78 [10] came out at 16.6%. Moreover, in the data set on Rif^r APEC O78 [10], the “Reduction in APEC lesions severity, Air-sacs (%)” value was 88.9%. Further, in the data set with Rif^r APEC O78 [10], the “Reduction in APEC lesions severity, Heart (%)” value was 83.3%. Moreover, the “Reduction in APEC lesions severity, Liver (%)” value in the data set on Rif^r APEC O78 [10] is reported as 100%. Also, the “Reduction in APEC lesions severity, Lung (%)” value in the data set on Rif^r APEC O78 [10] came out at 100%. The “toxicity (LDH)” value with Caco-2 cells is reported as 27%.
